Measurements: patent publication US11684614B2, “Formulations of hydroxypyridonate actinide/lanthanide decorporation agents” (priority 2017, dated 2023)
Several values for one entry are separate records, joined by “and”; a condition that tells them apart may be missing. Equal values may be shown once.

Assay: Repeated-treatment efficacy for removing an intravenous dose of 238Pu (excretion, tissue retention, clinical observations), female and male arms
Assay type: in vivo, Swiss-Webster mice
Settings: for % Recovered Dose - Feces per Day: male mice, listed as 3,4,3-LI(1,2-HOPO)
Protocol: The objective of this study was to characterize the efficacy of 3,4,3-L1(1,2-HOPO) at enhancing elimination from an internal plutonium burden in female and male Swiss-Webster mice administered a soluble citrate complex of ^238Pu and treated multiple times, starting at 24 hours after the exposure. Efficacy was evaluated by comparing the tissue contents, urinary and fecal excretions of ^238Pu in treated animals versus untreated animals.
The medical countermeasure 3,4,3-L1(1,2-HOPO) was administered parenterally (ip) or orally (po) via consecutive injections or gavages (six daily or twelve twice daily) starting at 24 hours post contamination at the following four selected doses: 30 μmol/kg ip, 150 μmol/kg po, 300 μmol/kg po, and 600 μmol/kg po (equivalent to respective approximate human doses range of […], using the accepted conversion system of mouse doses into human equivalent doses—HED—based on body surface area). Oral doses also included the permeability enhancer selected during formulation development work.
• Challenge isotope: ^238Pu • Challenge dose: 25 nCi (i.e., approximately 0.8 μCi/kg) • Route of contamination: Intravenous (iv) tail-vein • Route of treatment: Intraperitoneal Injection (ip) or Oral (po) • Frequency of treatment: Multiple (once- or twice-daily for 6 days) doses, starting 24 hr postcontamination • Treatment dose calculation: Dose calculations (mg/kg or μmol/kg) for the decorporation agent were based on the individual body weight measured after contamination. • Study Duration: 11 days, in-life
c. […] Test article and control dose formulations were prepared within 1 day of dose administration, by weighing out the appropriate amount of test article, dispersing in vehicle. For ip solutions, the test article was used alone, while for oral suspensions, a mixture of test article and excipient (90:10, w:w) was used. The pH was adjusted to 7.0-7.4 for ip administration and 5.0-5.5 for oral administration with sterile NaOH. Dose formulations were prepared at room temperature and filter-sterilized. • Storage: 2-8° C.; refrigerated; protected from light. • Characterization: The concentration of each test article formulation was verified by high-performance liquid chromatography-mass spectrometry. • Test Article Handling: Test, reference, and control article formulations were handled with the use of eye protection, gloves, and a protective laboratory coat. • Correct Dose Assurance: The test article was weighed with calibrated balances. The administration of each dose formulation was properly documented, and the amount administered to each animal recorded.
e. Experimental Procedures (In-Life Evaluations and Euthanasia) • Contamination: Single administration by intravenous (iv) tail-vein injection (0.2 mL injection volume) under isoflurane anesthesia. Three standard 0.2 mL injections were performed into polyethylene bottles and pre-loaded with aliquots of concentrated nitric acid on each injection day. Six female and six male mice were culled for necropsy 1 hr post-contamination and were used as standards. A11 standards were processed and counted together with the final samples to allow verification of the contamination dose. • Dose Administration: Single administration by intraperitoneal injection (ip) or oral gavage (po) under isoflurane anesthesia. • Mortality/Morbidity: Assessed at least once daily. • Clinical Observations: Recorded once daily (4 hr post-dose on day of treatment), or more often as clinical signs warranted. […]

## O=C(NCCCN(CCCCN(CCCNC(=O)c1cccc(=O)n1O)C(=O)c1cccc(=O)n1O)C(=O)c1cccc(=O)n1O)c1cccc(=O)n1O [3,4,3-L1(1,2-HOPO)]
Group I, feces day 1, Day 11 necropsy
  % Recovered Dose - Feces per Day: 9.44% and 11.73% and 10.15% and 5.92% and 9.00% and 6.11% and 8.55% and 9.19%
Group I, feces day 3, Day 11 necropsy
  % Recovered Dose - Feces per Day: 7.33% and 7.00% and 5.92% and 6.28% and 9.54% and 7.12% and 7.60% and 4.73%
Group I, feces day 4, Day 11 necropsy
  % Recovered Dose - Feces per Day: 4.73% and 4.29% and 4.45% and 3.39% and 5.21% and 4.16% and 3.65% and 3.13%
Group I, feces day 5, Day 11 necropsy
  % Recovered Dose - Feces per Day: 2.15% and 1.67% and 2.13% and 2.90% and 1.73% and 2.06% and 1.56% and 2.26%
Group I, feces day 6, Day 11 necropsy
  % Recovered Dose - Feces per Day: 1.96% and 1.64% and 1.89% and 2.15% and 2.00% and 1.56% and 1.92% and 1.66%
Group I, feces day 7, Day 11 necropsy
  % Recovered Dose - Feces per Day: 1.48% and 2.52% and 0.83% and 1.51% and 0.94% and 1.29% and 1.15% and 1.02%
Group I, feces day 8, Day 11 necropsy
  % Recovered Dose - Feces per Day: 0.86% and 0.84% and 0.55% and 0.76% and 1.22% and 0.87%
Group I, feces day 9, Day 11 necropsy
  % Recovered Dose - Feces per Day: 0.53% and 0.71% and 0.43% and 0.64% and 0.57% and 0.47% and 0.49%
Group I, feces day 10, Day 11 necropsy
  % Recovered Dose - Feces per Day: 0.46% and 0.52% and 0.43% and 0.45% and 0.40% and 0.47% and 0.36%
Group I, feces day 11, Day 11 necropsy
  % Recovered Dose - Feces per Day: 0.47% and 0.38% and 0.37% and 0.43% and 0.48% and 0.44% and 0.50%
Group L, feces day 2, Day 11 necropsy
  % Recovered Dose - Feces per Day: 9.49% and 10.37% and 11.59% and 15.06% and 13.00% and 13.15% and 16.38% and 8.84%
Group L, feces day 3, Day 11 necropsy
  % Recovered Dose - Feces per Day: 2.02% and 3.23% and 3.48% and 4.47% and 2.87% and 3.37% and 4.43% and 2.71%
Group L, feces day 4, Day 11 necropsy
  % Recovered Dose - Feces per Day: 1.98% and 2.69% and 3.71% and 6.81% and 3.67% and 4.04% and 3.55% and 3.76%
Group L, feces day 5, Day 11 necropsy
  % Recovered Dose - Feces per Day: 1.04% and 1.47% and 2.57% and 2.42% and 1.75% and 1.82% and 2.26% and 1.72%
Group L, feces day 6, Day 11 necropsy
  % Recovered Dose - Feces per Day: 3.32% and 1.94% and 2.97% and 2.78% and 2.36% and 3.15% and 2.15% and 2.74%
Group L, feces day 7, Day 11 necropsy
  % Recovered Dose - Feces per Day: 1.56% and 1.72% and 1.53% and 1.45% and 2.10% and 1.44% and 1.80% and 1.29%
Group L, feces day 8, Day 11 necropsy
  % Recovered Dose - Feces per Day: 1.03% and 1.27% and 1.54% and 1.58% and 1.33% and 1.26% and 1.23% and 0.92%
Group L, feces day 9, Day 11 necropsy
  % Recovered Dose - Feces per Day: 0.88% and 0.94% and 0.96% and 0.57% and 1.17% and 1.08% and 0.78%
Group L, feces day 10, Day 11 necropsy
  % Recovered Dose - Feces per Day: 0.60% and 0.98% and 0.96% and 0.65% and 0.99% and 1.01% and 1.02% and 0.90%
Group L, feces day 11, Day 11 necropsy
  % Recovered Dose - Feces per Day: 0.63% and 0.89% and 0.79% and 0.66% and 0.87% and 0.84%
Group M, feces day 2, Day 11 necropsy
  % Recovered Dose - Feces per Day: 16.84% and 15.20% and 15.54% and 13.29% and 15.04% and 19.29% and 14.53% and 19.54%
Group M, feces day 3, Day 11 necropsy
  % Recovered Dose - Feces per Day: 4.32% and 6.13% and 4.17% and 2.65% and 4.16% and 6.33% and 4.24% and 3.82%
Group M, feces day 4, Day 11 necropsy
  % Recovered Dose - Feces per Day: 3.42% and 4.94% and 4.01% and 4.02% and 6.06% and 4.40% and 3.22% and 2.93%
Group M, feces day 5, Day 11 necropsy
  % Recovered Dose - Feces per Day: 1.00% and 2.50% and 1.52% and 1.62% and 1.76% and 1.90% and 1.20% and 1.08%
Group M, feces day 6, Day 11 necropsy
  % Recovered Dose - Feces per Day: 10.71% and 2.32% and 2.47% and 1.70% and 3.63% and 2.41% and 1.58% and 1.99%
Group M, feces day 7, Day 11 necropsy
  % Recovered Dose - Feces per Day: 5.02% and 2.31% and 1.09% and 1.15% and 1.51% and 1.35% and 0.86% and 1.01%
Group M, feces day 8, Day 11 necropsy
  % Recovered Dose - Feces per Day: 1.81% and 1.55% and 1.22% and 0.94% and 1.24% and 2.07% and 0.87% and 1.10%
Group M, feces day 9, Day 11 necropsy
  % Recovered Dose - Feces per Day: 1.01% and 1.12% and 0.73% and 0.57% and 0.96% and 0.64% and 0.76%
Group M, feces day 10, Day 11 necropsy
  % Recovered Dose - Feces per Day: 0.48% and 0.47% and 0.92% and 0.59% and 0.65% and 1.22% and 0.76% and 0.85%
Group M, feces day 11, Day 11 necropsy
  % Recovered Dose - Feces per Day: 0.57% and 0.46% and 0.82% and 0.41% and 0.70% and 1.12% and 0.68% and 1.01%
male, 6 daily oral treatments, 600 μmol/kg, 11 days post-contamination
  increase in total 238Pu excretion compared to the control groups: up to 156%
male, all analyzed tissues, all dosing regimens
  tissue content of 238Pu compared to saline control group: large reductions
male, all treated groups
  full body content of 238Pu compared to saline control groups: significant reductions
male, once-daily oral 600 μmol/kg, 11 days post-contamination
  decrease in body burden compared to the control groups: up to 48%
male, oral once-daily 300 and 600 μmol/kg
  decorporation efficacy relative to parenteral DTPA: equivalent to that of parenteral treatment with DTPA
male, oral twice-daily 150 and 300 μmol/kg or once-daily 300 and 600 μmol/kg, 7 days post-contamination
  238Pu elimination enhancement: significant
